Reference: patent US20240000872A1, “NOVEL BACTERIOPHAGE THAT LYSES ACINETOBACTER GENUS BACTERIA HAVING RESISTANCE TO ANTIBIOTICS” (priority 2020, published 2024)

Tested on: Acinetobacter baumannii strains
Test: Antibiotic susceptibility test (CLSI disk diffusion test method, read per CLSI 2016)
Type: cell-based
Experimental: (§1) Strain identification was performed using a kit such as AT 32 GN system (bioMérieux, Marcy l'Etoile, France). […] In Table 2 below, S, I, and R are the results obtained by evaluating susceptibility to the antibacterial agents, in which ‘S’ means susceptible, ‘I’ means intermediate, and ‘R’ means resistant.
as §1, with “as ATB” for “as AT”, “system (bioMédrieux,” for “system (bioMérieux,”, “Table 6” for “Table 2”
as §1, with “as ATB” for “as AT”, “Table 10” for “Table 2”, “susceptible, T” for “susceptible, ‘I’”

## C[C@H]1COc2c(N3CCN(C)CC3)c(F)cc3c(=O)c(C(=O)O)cn1c23 [Levofloxacin, levofloxacin]
Host strain YMC14/01/C29
  antibiotic susceptibility class: R
Host strain YMC14/01/IP122
  antibiotic susceptibility class: I
Host strain YMC14/01/L8
  antibiotic susceptibility class: R
Host strain YMC14/01/P31
  antibiotic susceptibility class: R
Host strain YMC14/01/P117
  antibiotic susceptibility class: I
Host strain YMC14/01/P224
  antibiotic susceptibility class: R
Host strain YMC14/01/P727
  antibiotic susceptibility class: R
Host strain YMC14/01/P728
  antibiotic susceptibility class: R
Host strain YMC14/01/R130
  antibiotic susceptibility class: R
Host strain YMC14/01/R160
  antibiotic susceptibility class: R
Host strain YMC14/01/R198
  antibiotic susceptibility class: R
Host strain YMC14/01/R257
  antibiotic susceptibility class: R
Host strain YMC14/01/R270
  antibiotic susceptibility class: R
Host strain YMC14/01/R324
  antibiotic susceptibility class: R
Host strain YMC14/01/R443
  antibiotic susceptibility class: R
Host strain YMC14/01/R451
  antibiotic susceptibility class: R
Host strain YMC14/01/R560
  antibiotic susceptibility class: R
Host strain YMC14/01/R617
  antibiotic susceptibility class: R
Host strain YMC14/01/R671
  antibiotic susceptibility class: R
Host strain YMC14/01/R732
  antibiotic susceptibility class: R
Host strain YMC14/01/R767
  antibiotic susceptibility class: R
Host strain YMC14/01/R904
  antibiotic susceptibility class: R
Host strain YMC14/01/R905
  antibiotic susceptibility class: R
Host strain YMC14/01/R921
  antibiotic susceptibility class: R
Host strain YMC14/01/R941
  antibiotic susceptibility class: R
Host strain YMC14/01/R958
  antibiotic susceptibility class: R
Host strain YMC14/01/R1006
  antibiotic susceptibility class: R
Host strain YMC14/01/R1199
  antibiotic susceptibility class: R
Host strain YMC14/01/R1659
  antibiotic susceptibility class: R
Host strain YMC14/01/R1722
  antibiotic susceptibility class: R
Host strain YMC14/01/R1752
  antibiotic susceptibility class: R
Host strain YMC14/01/R2429
  antibiotic susceptibility class: R
Host strain YMC14/01/R2572
  antibiotic susceptibility class: R
Host strain YMC14/01/R2855
  antibiotic susceptibility class: R
Host strain YMC14/01/R2945
  antibiotic susceptibility class: R
Host strain YMC14/01/R3007
  antibiotic susceptibility class: R
Host strain YMC14/01/R3129
  antibiotic susceptibility class: R
Host strain YMC14/01/R3317
  antibiotic susceptibility class: R
Host strain YMC14/01/R3474
  antibiotic susceptibility class: I
Host strain YMC14/01/R3574
  antibiotic susceptibility class: R
Host strain YMC14/01/U313
  antibiotic susceptibility class: R
Host strain YMC14/01/U318
  antibiotic susceptibility class: R
Host strain YMC14/02/L18
  antibiotic susceptibility class: R
Host strain YMC14/02/P47
  antibiotic susceptibility class: R
Host strain YMC14/02/R1860
  antibiotic susceptibility class: R
Host strain YMC14/02/R2417
  antibiotic susceptibility class: R
Host strain YMC14/02/R2599
  antibiotic susceptibility class: R
Host strain YMC14/02/R2668
  antibiotic susceptibility class: R
Host strain YMC14/02/R2758
  antibiotic susceptibility class: R
Host strain YMC14/02/R2781
  antibiotic susceptibility class: R
Host strain YMC14/02/R3106
  antibiotic susceptibility class: R
Host strain YMC14/02/R3419
  antibiotic susceptibility class: R
Host strain YMC14/02/U1607
  antibiotic susceptibility class: R
Host strain YMC14/03/L9
  antibiotic susceptibility class: R
Host strain YMC14/03/P471
  antibiotic susceptibility class: R
Host strain YMC14/03/R122
  antibiotic susceptibility class: R
Host strain YMC14/03/R217
  antibiotic susceptibility class: R
Host strain YMC14/03/R380
  antibiotic susceptibility class: R
Host strain YMC14/03/R618
  antibiotic susceptibility class: R
Host strain YMC14/03/R2144
  antibiotic susceptibility class: R
Host strain YMC14/03/U4616
  antibiotic susceptibility class: R
Host strain YMC14/04/R1078
  antibiotic susceptibility class: R
Host strain YMC14/04/R1080
  antibiotic susceptibility class: R
Host strain YMC14/06/R2359
  antibiotic susceptibility S/I/R: R
  susceptibility category (S/I/R): R
Host strain YMC14/08/R1169
  antibiotic susceptibility S/I/R: R
  susceptibility category (S/I/R): R
Host strain YMC14/08/T90
  antibiotic susceptibility S/I/R: R
  susceptibility category (S/I/R): R
Host strain YMC15/02/R436
  antibiotic susceptibility S/I/R: R
  susceptibility category (S/I/R): R
Host strain YMC15/02/T28
  antibiotic susceptibility S/I/R: R
  susceptibility category (S/I/R): R
Host strain YMC15/03/R1604
  antibiotic susceptibility S/I/R: R
  susceptibility category (S/I/R): R
Host strain YMC15/09/R1869
  antibiotic susceptibility S/I/R: R
  susceptibility category (S/I/R): R
Host strain YMC16/01/P11
  antibiotic susceptibility S/I/R: R
  susceptibility category (S/I/R): R
Host strain YMC16/01/R123
  antibiotic susceptibility S/I/R: R
  susceptibility category (S/I/R): R
Host strain YMC16/01/R198
  antibiotic susceptibility S/I/R: R
  susceptibility category (S/I/R): R
